Earlier results as cited in patent publication US9781921B2, “Emulsifiable concentrate formulation” (Huntsman Corporation Australia Pty Limited, priority 2012, dated 2017).

System: mouse
Conditions: summary of Table 2

Compound: CC(=O)OCc1ccccc1 [Benzyl Acetate, benzyl acetate]
- Toxicity: relatively low toxicity
